# Laboratory results from US20230233453A1, “SUXAMETHONIUM COMPOSITION AND PREFILLED SYRINGE THEREOF” (LABORATOIRE AGUETTANT, priority 2020, published 2023).
# Key:
# [1] = Sensitivity of suxamethonium to oxidizing conditions; type: physicochemical
# [2] = Degradation of suxamethonium depending on pH; type: physicochemical; conditions: pH 5.0 vs pH 3.5
compound,measurement,setting,value
C[N+](C)(C)CCOC(=O)CCC(=O)OCC[N+](C)(C)C [suxamethonium],sensitivity to oxidizing conditions,[1],not sensitive to oxidizing conditions
same,degradation depending on pH,[2],faster at pH 5.0 than at pH 3.5
